From patent US10231967B2, “Compounds and their use as BACE inhibitors” (ASTRAZENECA AB, priority 2010, dated 2019)

The compounds below were run on sAPPβ release in SH-SY5Y cells (assay: sAPPβ release assay). Conditions: Homo sapiens, SH-SY5Y, 17 h, compounds incubated 17 h, MSD detection.
Type: cell-based
Protocol: Thaw cells and seed at a conc. of around 10000 cells/well in DMEM/F-12 with Glutamax, 10% FCS and 1% non-essential amino acids to a 384-well tissue culture treated plate, 100 μL cell susp/well. […] The cell medium was removed, followed by addition of 30 μL compound diluted in DMEM/F-12 with Glutamax, 10% FCS, 1% non-essential amino acids and 1% PeSt to a final conc. of 1% DMSO. The compounds were incubated with the cells for 17 h (overnight) at 37° C., 5% CO2. Meso Scale Discovery (MSD) plates were used for the detection of sAPPβ release. MSD sAPPβ plates were blocked in 1% BSA in Tris wash buffer (40 μL/well) for 1 h on shake at r.t. and washed 1 time in Tris wash buffer (40 μL/well). 20 μL of medium was transferred to the pre-blocked and washed MSD sAPPβ microplates, and the cell plates were further used in an ATP assay to measure cytotoxicity. The MSD plates were incubated with shaking at r.t. for 2 h and the media discarded. 10 μL detection antibody was added (1 nM) per well followed by incubation with shaking at r.t. for 2 h and then discarded. 40 μL Read Buffer was added per well and the plates were read in a SECTOR Imager.

Compound	IC50 [nM]
CC1=N[C@]2(C[C@@H]([C@@H]3CCCOC3)Oc3ccc(-c4cccc(Cl)c4)cc32)N=C1N [Example 48 Isomer 1, (2S,4R)-6-(3-chlorophenyl)-5′-methyl-2-[(3R)-tetrahydro-2H-pyran-3-yl]-2,3-dihydrospiro[chromene-4,2′-imidazol]-4′-amine]	20
CC1=N[C@]2(C[C@H]([C@@H]3CCCOC3)Oc3ccc(-c4cccc(Cl)c4)cc32)N=C1N [Example 48 Isomer 7, (2R,4R)-6-(3-chlorophenyl)-5′-methyl-2-[(3R)-tetrahydro-2H-pyran-3-yl]-1′,2,3,3′-tetrahydrospiro[chromene-4,2′-imidazol]-4′-amine]	191
CC1=N[C@]2(C[C@@H]([C@H]3CCCOC3)Oc3ccc(-c4cccc(Cl)c4)cc32)N=C1N [Example 48 Isomer 8, (2S,4R)-6-(3-chlorophenyl)-5′-methyl-2-[(3S)-tetrahydro-2H-pyran-3-yl]-1′,2,3,3′-tetrahydrospiro[chromene-4,2′-imidazol]-4′-amine]	204
CC#Cc1cncc(-c2ccc3c(c2)C2(CCC3)N=C(C)C(N)=N2)c1 (stereo not shown) [Example 53, 5-Methyl-7′-(5-(prop-1-ynyl)pyridin-3-yl)-3′,4′-dihydro-2′H-spiro[imidazole-2,1′-naphthalen]-4-amine]	21
CC1=NC2(N=C1N)c1cc(C#CC3CC3)ccc1CC21CCC1 (stereo not shown) [Example 58, 6′-(Cyclopropylethynyl)-5″-methyl-3′H-dispiro[cyclobutane-1,2′-indene-1′,2″-imidazol]-4″-amine]	219

The remaining lines, values ahead:

IC50 [nM]	Compound
689	CC1=N[C@]2(C[C@H]([C@H]3CCCOC3)Oc3ccc(-c4cccc(Cl)c4)cc32)N=C1N [Example 48 Isomer 4, (2R,4R)-6-(3-chlorophenyl)-5′-methyl-2-[(3 S)-tetrahydro-2H-pyran-3-yl]-1′,2,3,3′-tetrahydrospiro[chromene-4,2′-imidazol]-4′-amine]
118	CC1=NC2(N=C1N)c1cc(-c3cncc(Cl)c3)ccc1CC21CCC1 (stereo not shown) [Example 55, 6′-(5-Chloropyridin-3-yl)-5″-methyl-3′H-dispiro[cyclobutane-1,2′-indene-1′,2″-imidazol]-4″-amine]
24	CC#Cc1cncc(-c2ccc3c(c2)C2(N=C(C)C(N)=N2)C2(CCC2)C3)c1 (stereo not shown) [Example 56, 5″-Methyl-6′-[5-(prop-1-yn-1-yl)pyridin-3-yl]-3′H-dispiro[cyclobutane-1,2′-indene-1′,2″-imidazol]-4″-amine]
18	CC#Cc1cncc(-c2ccc3c(c2)C2(N=C(C)C(N)=N2)C2(CCC(F)(F)CC2)C3)c1 (stereo not shown) [Example 28h, 4,4-Difluoro-5″-methyl-6′-[5-(prop-1-yn-1-yl)pyridin-3-yl]-3′H-dispiro[cyclohexane-1,2′-indene-1′,2″-imidazol]-4″-amine]
8.7	CO[C@H]1CC[C@]2(CC1)Cc1ccc(-c3cnc(C)c(Cl)c3)cc1C21N=C(C)C(N)=N1 (stereo partly shown) [Example 60, (1r,4r)-6′-(5-Chloro-6-methylpyridin-3-yl)-4-methoxy-5″-methyl-3′H-dispiro[cyclohexane-1,2′-indene-1′,2″-imidazol]-4″-amine]

Same assay, conditions: Homo sapiens, compounds incubated 17 h, MSD detection

IC50 [nM]	Compound
848	COC1CCC2(CC1)Oc1ccc(Br)cc1C21N=C(C)C(N)=N1 (stereo not shown) [Example 29, 5′-bromo-4-methoxy-5″-methyldispiro[cyclohexane-1,2′-[1]benzofuran-3′,2″-imidazol]-4″-amine]
97	COC1CCC2(CC1)Oc1ccc(-c3cncc(Cl)c3)cc1C21N=C(C)C(N)=N1 (stereo not shown) [Example 30d, 5′-(5-Chloropyridin-3-yl)-4-methoxy-5′-methyldispiro[cyclohexane-1,2′-[1]benzofuran-3′,2″-imidazol]-4″-amine]
91	CC1=NC2(CCCc3ccc(-c4cncc(Cl)c4)cc32)N=C1N (stereo not shown) [Example 52, 7′-(5-Chloropyridin-3-yl)-5-methyl-3′,4′-dihydro-2′H-spiro[imidazole-2,1′-naphthalen]-4-amine]
